Experimental data as given in ChEMBL document CHEMBL1817628, “Structure-based design of new DHFR-based antibacterial agents: 7-aryl-2,4-diaminoquinazolines” (Bioorg Med Chem Lett, 2011).
Values after ≈ are worked out from the molar mass of the structure shown.

What was measured:
Staphylococcus aureus [1] = experiment: Antibacterial activity against Staphylococcus aureus Smith ATCC 13709 in presence of 20% mouse serum by CLSI microdilution method; format: functional
Dihydrofolate reductase [2] = target: Dihydrofolate reductase (Staphylococcus aureus, UniProt P0A017); experiment: Inhibition of Staphylococcus aureus DHFR assessed as oxidation of NADPH using dihydrofolate as substrate pre-incubated for 10 mins before substrate addition by spectrophotometry
Dihydrofolate reductase [3] = target: T1, Dihydrofolate reductase (Homo sapiens, UniProt P00374); experiment: Inhibition of human DHFR assessed as oxidation of NADPH using dihydrofolate as substrate pre-incubated for 10 mins before substrate addition by spectrophotometry
T1 sequence (P00374 whole entry): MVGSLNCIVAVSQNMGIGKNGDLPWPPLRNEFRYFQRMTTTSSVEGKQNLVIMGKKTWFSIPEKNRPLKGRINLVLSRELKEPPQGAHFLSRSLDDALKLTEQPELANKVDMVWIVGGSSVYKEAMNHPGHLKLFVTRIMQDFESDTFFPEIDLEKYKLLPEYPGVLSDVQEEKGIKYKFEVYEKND

Haemophilus influenzae = experiment: Antibacterial activity against ampicillin-resistant Haemophilus influenzae ATCC 49247 by CLSI microdilution method; format: functional
Staphylococcus aureus [4] = experiment: Antibacterial activity against Staphylococcus aureus Smith ATCC 13709 by CLSI microdilution method; format: functional
[5] = Inhibition of Haemophilus influenzae DHFR assessed as oxidation of NADPH using dihydrofolate as substrate pre-incubated for 10 mins before substrate addition by spectrophotometry
Enterococcus faecalis = experiment: Antibacterial activity against Enterococcus faecalis ATCC 29212 by CLSI microdilution method; format: functional
Escherichia coli = experiment: Antibacterial activity against Escherichia coli ATCC 35218 by CLSI microdilution method; format: functional
Staphylococcus aureus [6] = experiment: Antibacterial activity against TMP-resistant Staphylococcus aureus harboring DHFR F99Y mutant by CLSI microdilution method; format: functional
Dihydrofolate reductase [7] = target: Dihydrofolate reductase (Staphylococcus aureus, UniProt P0A017, F99Y); experiment: Inhibition of TMP-resistant Staphylococcus aureus DHFR F99Y mutant assessed as oxidation of NADPH using dihydrofolate as substrate pre-incubated for 10 mins before substrate addition by spectrophotometry

Row | SMILES | MIC (Staphylococcus aureus [1]) | Ki (Dihydrofolate reductase [2]) | Ki (Dihydrofolate reductase [3]) | MIC (Haemophilus influenzae) | MIC (Staphylococcus aureus [4]) | Ki [5] | MIC (Enterococcus faecalis) | MIC (Escherichia coli) | MIC (Staphylococcus aureus [6]) | Ki (Dihydrofolate reductase [7])
1 | CCOc1ccc(C=O)cc1-c1cc2nc(N)nc(N)c2cc1C | 1 µg/mL | 0.24 nM | 12 nM | 2 µg/mL (≈ 6.2 µM) | 1 µg/mL (≈ 3.1 µM) | 0.22 nM | 0.5 µg/mL (≈ 1.55 µM) | 16 µg/mL (≈ 49.6 µM) |  | 
2 | CCOc1ccc(Cl)cc1-c1cc2nc(N)nc(N)c2cc1C | 2 µg/mL | 0.38 nM | 11.1 nM | 8 µg/mL (≈ 24.3 µM) | 1 µg/mL (≈ 3.04 µM) | 0.023 nM | 0.5 µg/mL (≈ 1.52 µM) | 8 µg/mL (≈ 24.3 µM) |  | 
3 | COc1cc(Cc2cnc(N)nc2N)c2c(c1OC)OC(C1CC1)C=C2 (configuration not stated) | 0.13 µg/mL |  |  | 1 µg/mL (≈ 2.82 µM) | 0.13 µg/mL (≈ 0.367 µM) | 0.007 nM | 0.03 µg/mL (≈ 0.0846 µM) | 4 µg/mL (≈ 11.3 µM) | 2 µg/mL (≈ 5.64 µM) | 
4 | Nc1ccc(-c2ccc3c(N)nc(N)nc3c2)cc1 | 2 µg/mL |  |  | 4 µg/mL (≈ 15.9 µM) | 4 µg/mL (≈ 15.9 µM) | 0.16 nM | 8 µg/mL (≈ 31.8 µM) | 32 µg/mL (≈ 127 µM) |  | 
5 | Cc1ccccc1-c1cc2nc(N)nc(N)c2cc1C | 2 µg/mL | 0.77 nM | 95.6 nM | 4 µg/mL (≈ 15.1 µM) | 0.5 µg/mL (≈ 1.89 µM) | 0.037 nM | 0.5 µg/mL (≈ 1.89 µM) | 8 µg/mL (≈ 30.3 µM) |  | 
6 | COc1ccc(OC)c(-c2cc3nc(N)nc(N)c3cc2C)c1 | 1 µg/mL |  |  | 8 µg/mL (≈ 25.8 µM) | 1 µg/mL (≈ 3.22 µM) | 0.014 nM | 4 µg/mL (≈ 12.9 µM) | 16 µg/mL (≈ 51.6 µM) |  | 
7 | CS(=O)(=O)c1ccc(-c2ccc3c(N)nc(N)nc3c2)cc1 | 8 µg/mL | 5 nM | 253 nM | 16 µg/mL (≈ 50.9 µM) | 8 µg/mL (≈ 25.4 µM) | 0.22 nM | 16 µg/mL (≈ 50.9 µM) | > 64 µg/mL |  | 
8 | COc1ccccc1-c1ccc2c(N)nc(N)nc2c1 | 4 µg/mL |  |  | 16 µg/mL (≈ 60.1 µM) | 2 µg/mL (≈ 7.51 µM) | 0.21 nM | 4 µg/mL (≈ 15 µM) | 32 µg/mL (≈ 120 µM) |  | 
9 | Cc1cc2c(N)nc(N)nc2cc1-c1ccc(N)cc1 | 1 µg/mL |  |  | 2 µg/mL (≈ 7.54 µM) | 1 µg/mL (≈ 3.77 µM) | 0.0018 nM | 0.5 µg/mL (≈ 1.88 µM) | 8 µg/mL (≈ 30.2 µM) |  | 
10 | Cc1cc2c(N)nc(N)nc2cc1-c1ccccc1C(C)C | 1 µg/mL | 0.13 nM | 20.9 nM | 8 µg/mL (≈ 27.4 µM) | 0.25 µg/mL (≈ 0.855 µM) | 0.037 nM | 0.5 µg/mL (≈ 1.71 µM) | 16 µg/mL (≈ 54.7 µM) |  | 
11 | CC(=O)c1cccc(-c2ccc3c(N)nc(N)nc3c2)c1 | 8 µg/mL |  |  | 64 µg/mL (≈ 230 µM) | 4 µg/mL (≈ 14.4 µM) | 0.31 nM | 4 µg/mL (≈ 14.4 µM) | 32 µg/mL (≈ 115 µM) |  | 
12 | CCOc1ccc(-c2cccnc2)cc1-c1ccc2c(N)nc(N)nc2c1 | 8 µg/mL | 0.3 nM | 10.1 nM | 16 µg/mL (≈ 44.8 µM) | 0.5 µg/mL (≈ 1.4 µM) | 0.011 nM | 0.5 µg/mL (≈ 1.4 µM) | > 16 µg/mL |  | 
13 | Cc1cc2c(N)nc(N)nc2cc1-c1ccccc1 | 2 µg/mL | 1.6 nM | 129 nM | 2 µg/mL (≈ 7.99 µM) | 1 µg/mL (≈ 4 µM) | 0.0073 nM | 0.5 µg/mL (≈ 2 µM) | 8 µg/mL (≈ 32 µM) |  | 
14 | CCc1ccccc1-c1cc2nc(N)nc(N)c2cc1C | 0.5 µg/mL | 0.19 nM | 41.1 nM | 8 µg/mL (≈ 28.7 µM) | 0.25 µg/mL (≈ 0.898 µM) | 0.032 nM | 0.25 µg/mL (≈ 0.898 µM) | 8 µg/mL (≈ 28.7 µM) |  | 
15 | CCOc1ccc(Br)cc1-c1cc2nc(N)nc(N)c2cc1C | 8 µg/mL | 0.76 nM | 11.1 nM | 32 µg/mL (≈ 85.7 µM) | 1 µg/mL (≈ 2.68 µM) | 0.044 nM | 0.5 µg/mL (≈ 1.34 µM) | 32 µg/mL (≈ 85.7 µM) |  | 
16 | CCOc1ccc(C)cc1-c1cc2nc(N)nc(N)c2cc1C | 4 µg/mL | 0.85 nM | 22.2 nM | 16 µg/mL (≈ 51.9 µM) | 1 µg/mL (≈ 3.24 µM) | 0.034 nM | 0.5 µg/mL (≈ 1.62 µM) | 16 µg/mL (≈ 51.9 µM) |  | 
17 | Cc1cc2c(N)nc(N)nc2cc1-c1ccc(S(C)(=O)=O)cc1 | 1 µg/mL | 1.2 nM | 44.1 nM | 8 µg/mL (≈ 24.4 µM) | 2 µg/mL (≈ 6.09 µM) | 0.0023 nM | 1 µg/mL (≈ 3.05 µM) | 32 µg/mL (≈ 97.4 µM) |  | 
18 | CC(=O)c1cccc(-c2cc3nc(N)nc(N)c3cc2C)c1 | 1 µg/mL |  |  | 1 µg/mL (≈ 3.42 µM) | 0.5 µg/mL (≈ 1.71 µM) | 0.006 nM | 0.5 µg/mL (≈ 1.71 µM) | 4 µg/mL (≈ 13.7 µM) |  | 
19 | Nc1nc(N)c2ccc(-c3ccccc3)cc2n1 | 64 µg/mL | 9.1 nM | 743 nM | 16 µg/mL (≈ 67.7 µM) | 8 µg/mL (≈ 33.9 µM) | 0.52 nM | 8 µg/mL (≈ 33.9 µM) | 16 µg/mL (≈ 67.7 µM) |  | 
20 | COc1ccc(-c2cc3nc(N)nc(N)c3cc2C)cc1OC | 0.5 µg/mL | 0.35 nM | 12.2 nM | 4 µg/mL (≈ 12.9 µM) | 0.5 µg/mL (≈ 1.61 µM) | 0.0018 nM | 0.5 µg/mL (≈ 1.61 µM) | 8 µg/mL (≈ 25.8 µM) |  | 
21 | COc1cc(Cc2cnc(N)nc2N)cc(OC)c1OC [TRIMETHOPRIM] | 1 µg/mL |  |  | 0.5 µg/mL (≈ 1.72 µM) | 1 µg/mL (≈ 3.44 µM) | 0.19 nM | 0.5 µg/mL (≈ 1.72 µM) | 1 µg/mL (≈ 3.44 µM) | 32 µg/mL (≈ 110 µM) | 
22 | CCOc1ccc2ccccc2c1-c1cc2nc(N)nc(N)c2cc1C | 0.5 µg/mL |  |  | 16 µg/mL (≈ 46.5 µM) | 0.125 µg/mL (≈ 0.363 µM) | 0.015 nM | 0.5 µg/mL (≈ 1.45 µM) | 16 µg/mL (≈ 46.5 µM) | 1 µg/mL (≈ 2.9 µM) | 2.4 nM
23 | CCOc1ccccc1-c1ccc2c(N)nc(N)nc2c1 | 8 µg/mL | 3.1 nM | 85 nM | 16 µg/mL (≈ 57.1 µM) | 4 µg/mL (≈ 14.3 µM) | 0.27 nM | 4 µg/mL (≈ 14.3 µM) | 32 µg/mL (≈ 114 µM) |  | 
24 | CCOc1ccc(C(=O)N(CC)CC)cc1-c1cc2nc(N)nc(N)c2cc1C | 0.5 µg/mL |  |  | 64 µg/mL (≈ 163 µM) | 0.5 µg/mL (≈ 1.27 µM) | 0.013 nM | 0.5 µg/mL (≈ 1.27 µM) | 64 µg/mL (≈ 163 µM) | 8 µg/mL (≈ 20.3 µM) | 6 nM
25 | CCOc1ccc2[nH]ccc2c1-c1cc2nc(N)nc(N)c2cc1C | 1 µg/mL | 0.61 nM | 245 nM | 16 µg/mL (≈ 48 µM) | 0.25 µg/mL (≈ 0.75 µM) | 0.082 nM | 0.25 µg/mL (≈ 0.75 µM) | 8 µg/mL (≈ 24 µM) |  | 
26 | CCOc1ccc(-c2cccc(NS(C)(=O)=O)c2)cc1-c1ccc2c(N)nc(N)nc2c1 | 2 µg/mL |  |  | 8 µg/mL (≈ 17.8 µM) | 0.5 µg/mL (≈ 1.11 µM) | 0.0049 nM | 0.5 µg/mL (≈ 1.11 µM) | 64 µg/mL (≈ 142 µM) |  | 
